“And” between values parts separate entries of the source, which are not always exact repeats. Equal entries are not always repeated. Where two headings read alike, the source gives them in different places.
Experiments:
CES2 > CES1 (HLM) = target: CES2 > CES1 (HLM); set-up: method as in PMID 23648675, PMID 32955894; conditions: read-out: Ki (literature); cited from earlier work
rhCES2 = conditions: cited from earlier work
[1] = test system: CES2 (FDA hydrolysis in pig retina); assay: Inhibition of FDA hydrolysis in pig retina; type: biochemical; conditions: 10 μM FDA
Experimental: Diluted samples (5 μg of protein) were incubated at 37 °C in black 96-well Thermo Scientific Nunc F96 MicroWell plates. […] The fluorescein stock solution was used to generate a standard curve (0.156–10 μM) using 2-fold serial dilutions in 0.1 M PBS, pH 7.4.
(§1) Inhibitors were tested at a final concentration range of 0.4–400 μM except for PMSF (0.3–2.5 mM).
(§2) The differences among hydrolytic activities were analyzed by ANOVA using the SigmaPlot software (Sigma Plot 13.0, Systat Software Inc., San Jose, CA), followed by Mann–Whitney U test for statistical comparisons between species and between tissues. Between species, statistically significant differences are ranked by the asterisk signs (in the order of *, p < 0.05; **, p < 0.01, and *** p < 0.001). Between tissues of the same species, statistically significant differences in comparison to conjunctiva are represented by the dagger sign (†, p < 0.05). Nonlinear regression analysis to determine the Km, Vmax, and IC50 values were done using GraphPad Prism (GraphPad, 5.04 Software Inc., San Diego, CA). For IC50, logarithms of inhibitor concentrations were plotted against the relative response (0 μM inhibitor = 100%).

[2] = test system: esterases in pig cornea homogenate (NPA hydrolysis); assay: Inhibition of NPA hydrolysis in pig cornea; type: biochemical; conditions: 0.1 mM NPA; for IC50: for PMSF no unique IC50, concentration giving 50% inhibition, read-out: IC50 (this study), inhibition of NPA hydrolysis
Experimental: (§3) NPA hydrolysis was performed with a slight modification to our previous protocol[22] in clear flat-bottom 96-well Thermo Scientific Sterilin Microtiter plates at 37 °C. Diluted ocular samples (8 μg of protein in 80 μL of PBS) were pipetted into the reaction wells, and the background absorbance was measured at 405 nm for 10 min of preincubation. […] Changes in absorbance at 405 nm were recorded with a Victor^2 Microplate Reader (PerkinElmer Wallac 1420, St. Paul, MN) for 45 min with 90 s reading intervals. 4-Nitrophenol was used to generate a standard curve (5–400 μM).
as §1, §2

most esterases = conditions: cited from earlier work
[3] = test system: esterases in rabbit cornea, iris–ciliary body and aqueous humor; set-up: method as in PMID 16223870; conditions: 1000 μM; cited from earlier work
[4] = target: CES1 (DME hydrolysis in pig cornea and conjunctiva) (Sus scrofa, UniProt F1RF16); assay: Inhibition of DME hydrolysis in pig cornea and conjunctiva; type: biochemical; conditions: 5 μM DME, at 200 μM inhibitor, read-out: Extent of inhibition of DME hydrolysis
Experimental: (§4) The hydrolysis of DME was monitored with slight modifications using the published bioluminescence-based assay[13],[21] where recombinant firefly luciferase enzyme was used to detect the D-luciferin that formed in the reaction mixture. The DME hydrolysis reaction was done in white-coated 96-well plates (Thermo Scientific Sterilin Microtiter Plates). Tissue lysates (5 μg of protein) were preincubated in 0.1 M PBS, pH 6.5. The reaction was initiated by adding DME to a final concentration of 5 μM in a final volume of 200 μL. The hydrolysis of DME was allowed to proceed for 20 min at 37 °C. The formed D-luciferin was quantitated by an injection of 73 μL of the luciferase detection reagent [3 μg of rLuciferase, 50 nmol of ATP, and 50 nmol of MgCl2 in PBS], and the luminescence was measured immediately with a Victor^2 Microplate Reader (560 nm, 1 s). Serial 2-fold dilutions of D-luciferin in 0.1 M PBS, pH 6.5 were used to generate the standard curve (0.156–10 μM).
as §1
(§5) The differences among hydrolytic activities were analyzed by ANOVA using the SigmaPlot software (Sigma Plot 13.0, Systat Software Inc., San Jose, CA), followed by Mann–Whitney U test for statistical comparisons between species and between tissues. […]

[5] = test system: CES1 (DME hydrolysis in rabbit cornea and conjunctiva); assay: Inhibition of DME hydrolysis in rabbit cornea and conjunctiva; type: biochemical; conditions: 5 μM DME, at 200 μM inhibitor
Experimental: as §4, §1, §5

[6] = test system: AADAC (pig ocular tissue homogenates); assay: Phenacetin hydrolysis to p-phenetidine in pig ocular tissues; type: in vitro ADME; conditions: 4 mM phenacetin, below detection limit
Experimental: (§6) Phenacetin, a specific substrate for human AADAC,[18],[19],[24] was incubated with ocular tissue homogenates. The substrate (4 mM, final concentration) was preincubated in the 0.1 M Tris-HCl, pH 7.4, buffer at 37 °C for 5 min, after which the tissue samples (20 μg of protein) were added to start the reaction in the total reaction volume of 200 μL. All the reaction and control samples were incubated for 50 min at 37 °C with shaking. The reaction was terminated by adding 200 μL of ice-cold ACN containing acetaminophen at an 1 μM final concentration as the internal standard, followed by centrifugation at 4 °C for 10 min at 10 000g. A standard curve using the metabolite p-phenetidine (0.1–100 μM)[24] was established. The protein amount and incubation time were optimized from earlier pilot experiments for both procaine and phenacetin hydrolysis reactions. All incubations were performed in triplicate including the controls (control with no sample, control with no substrate), and the data are expressed as mean ± SD.
(§7) The metabolites from the above CES2 and AADAC assays were analyzed using a Waters (Milford, MA) Acquity ultra-performance liquid chromatographic (UPLC) coupled with a Q-Exactive Focus Orbitrap MS (Thermo Scientific). […]

[7] = test system: AADAC (rabbit ocular tissue homogenates); assay: Phenacetin hydrolysis to p-phenetidine in rabbit ocular tissues; type: in vitro ADME; conditions: 4 mM phenacetin, below detection limit
Experimental: as §6, §7

multiple esterases (HLM) = conditions: NPA, read-out: Km literature data; cited from earlier work
[8] = test system: multiple esterases (rabbit cornea); conditions: NPA, read-out: Km literature data; cited from earlier work
[9] = test system: multiple esterases (pig ocular tissue homogenates); assay: NPA hydrolysis in pig ocular tissue homogenates; type: in vitro ADME; conditions: for NPA hydrolysis rate: 400 μM NPA
Experimental: as §3, with “St.” for “St. Paul, MN) for 45 min with 90 s reading intervals. 4-Nitrophenol was used to generate a standard curve (5–400 μM).”

pig liver CES1 = conditions: NPA, read-out: Km literature data; cited from earlier work
[10] = test system: multiple esterases (rabbit ocular tissue homogenates); assay: NPA hydrolysis in rabbit ocular tissue homogenates; type: in vitro ADME; conditions: for NPA hydrolysis rate: 400 μM NPA
Experimental: as §3, with “St.” for “St. Paul, MN) for 45 min with 90 s reading intervals. 4-Nitrophenol was used to generate a standard curve (5–400 μM).”

[11] = test system: CES2 (rabbit ocular tissue homogenates); conditions: for FDA hydrolysis rate: 100 μM FDA
[12] = test system: CES2 (pig ocular tissue homogenates); conditions: for FDA hydrolysis rate: 100 μM FDA
[13] = test system: CES2 (pig ocular tissue homogenates); assay: Procaine hydrolysis to PABA in pig ocular tissues; type: in vitro ADME; conditions: 100 μM procaine
Experimental: (§8) Procaine, a known human CES2 substrate,[2],[17],[50] was incubated with rabbit and pig ocular tissues. After preincubation of the substrate (100 μM procaine in 0.1 M Tris-HCl, pH 7.4) at 37 °C, the reaction was initiated with tissue samples (20 μg of protein) in a total reaction volume of 200 μL. All the samples in parallel with the controls (no substrate or no enzyme) were incubated for 50 min at 37 °C on a shaker incubator (Heidolph Titramax 1000 platform shaker, Berlin Germany). The reaction was terminated by adding 200 μL of ice-cold ACN containing the internal standard procainamide (1 μM final concentration), followed by centrifugation at 4 °C for 10 min at 10 000g. Supernatants were collected for HPLC analysis. The standard curve was established using the hydrolysis product PABA with the concentration range 0.1–1000 nM.[51]
(§9) The metabolites from the above CES2 and AADAC assays were analyzed using a Waters (Milford, MA) Acquity ultra-performance liquid chromatographic (UPLC) coupled with a Q-Exactive Focus Orbitrap MS (Thermo Scientific). A Waters HSS T3 column (2.1 mm × 100 mm, 1.8 μm particle size) was used with elution gradients A (0.1% formic acid) and B (methanol) [0–0.5 min, 1% B; 0.5–4 min, 1%–20% B; 4–4.5 min, 20%–98% B; 4.5–5 min, 98% B; and 5–6 min, 98%–1% B]. The injection volume was 2 μL with a flow rate of 0.5 mL/min and a column temperature of 40 °C. […]

[14] = test system: CES2 (rabbit ocular tissue homogenates); assay: Procaine hydrolysis to PABA in rabbit ocular tissues; type: in vitro ADME; conditions: 100 μM procaine
Experimental: as §8, §9

Chain of CES1 (DME hydrolysis in pig cornea and conjunctiva) (F1RF16 19-530): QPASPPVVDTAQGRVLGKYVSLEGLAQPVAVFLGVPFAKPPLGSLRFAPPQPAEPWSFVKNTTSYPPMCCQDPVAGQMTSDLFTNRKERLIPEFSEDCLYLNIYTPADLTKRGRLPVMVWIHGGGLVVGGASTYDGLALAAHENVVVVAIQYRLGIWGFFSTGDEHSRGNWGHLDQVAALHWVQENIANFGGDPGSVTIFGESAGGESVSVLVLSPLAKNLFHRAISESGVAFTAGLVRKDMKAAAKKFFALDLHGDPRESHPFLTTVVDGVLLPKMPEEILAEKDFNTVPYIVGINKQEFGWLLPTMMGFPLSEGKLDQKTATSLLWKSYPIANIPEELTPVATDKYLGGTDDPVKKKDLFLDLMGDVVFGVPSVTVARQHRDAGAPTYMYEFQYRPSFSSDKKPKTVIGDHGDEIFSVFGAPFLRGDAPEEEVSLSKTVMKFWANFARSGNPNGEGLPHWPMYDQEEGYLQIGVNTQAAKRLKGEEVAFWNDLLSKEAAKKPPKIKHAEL

For COc1ccc(CCN(C)CCCC(C#N)(c2ccc(OC)c(OC)c2)C(C)C)cc1OC (stereo not drawn) [verapamil], the Ki (CES2 > CES1 (HLM)) is listed as 11.5 ± 1.2 µM, the IC50 (rhCES2; rhCES2, read-out: IC50 (literature)) is listed as 7.94 µM and the Ki (rhCES2; rhCES2, read-out: Ki (literature)) is listed as 3.84 ± 0.99 µM. The “Extent of inhibition of FDA hydrolysis” value [1] was “no inhibition”.

For O=S(=O)(F)Cc1ccccc1 [PMSF, phenylmethylsulfonyl fluoride], the IC50 [2] is listed as 200 µM and ~200 µM, the IC50 (most esterases; most esterases, read-out: IC50 (literature)) is listed as 541 µM and the Ki (most esterases; most esterases, read-out: Ki (literature)) is listed as 560 µM. The IC50 (most esterases; other tissues, read-out: reported IC50 value in other tissues) was ~500 µM.

For O=C(O)c1cc[c]([Hg][Cl])cc1 [p-chloromercuribenzoate], the “Inhibition of naphthyl acetate hydrolysis” value [3] is given as 10%–30%.

In the case of O=C(O)CN(CCN(CC(=O)O)CC(=O)O)CC(=O)O [EDTA], the “Inhibition of naphthyl acetate hydrolysis” value [3] is listed as 10%–30%.

In the case of C[C@@H]1CC[C@@]2(OC1)O[C@H]1[C@@H](O)[C@H]3[C@@H]4CC[C@H]5C[C@@H](O[C@@H]6O[C@H](CO)[C@H](O[C@@H]7O[C@H](CO)[C@@H](O)[C@H](O[C@@H]8OC[C@@H](O)[C@H](O)[C@H]8O)[C@H]7O[C@@H]7O[C@H](CO)[C@H](O)[C@H](O[C@@H]8O[C@H](CO)[C@@H](O)[C@H](O)[C@H]8O)[C@H]7O)[C@H](O)[C@H]6O)[C@H](O)C[C@]5(C)[C@H]4CC[C@]3(C)[C@H]1[C@@H]2C [digitonin], the inhibition at 200 µM [4] is reported as 15%, the IC50 [2] is reported as 38 µM and the “Extent of inhibition of NPA hydrolysis (maximal)” value ([2]; highest inhibitor concentration 400 μM (PMSF 2.5 mM)) is reported as ~40%. For the same compound, the “Extent of inhibition of DME hydrolysis” value [5] was 30%.

In the case of COc1ccc([C@@H]2Sc3ccccc3N(CCN(C)C)C(=O)[C@@H]2OC(C)=O)cc1 [diltiazem], the Ki (CES2 > CES1 (HLM)) is given as 2.89 ± 0.39 µM.

In the case of CCOc1ccc(NC(C)=O)cc1 [phenacetin], the “Phenacetin hydrolysis rate (p-phenetidine formation)” value [6] is reported as “undetectable”, the “Phenacetin hydrolysis rate (p-phenetidine formation)” value ([6]; listed as Phenacetin) is reported as < 0.1 pmol/min/mg and the “Phenacetin hydrolysis rate (p-phenetidine formation)” value [7] is reported as “undetectable”. For the same compound, the “Phenacetin hydrolysis rate (p-phenetidine formation)” value ([7]; listed as Phenacetin) was < 0.1 pmol/min/mg.

For CC(C)(C)NC[C@H](O)COc1nsnc1N1CCOCC1 [timolol], the “inhibition (literature, printed in IC50 column)” value (rhCES2; main human enzyme CES2, at 200 μM) is given as 20% inhibition at 200 μM and the “Extent of inhibition of FDA hydrolysis” value [1] is given as “no inhibition”.

For CC(=O)Oc1ccc([N+](=O)[O-])cc1 [NPA, 4-Nitrophenyl acetate], the Km (multiple esterases (HLM)) is listed as 198 ± 17 µM, the Km [8] is listed as 68 ± 15 µM and the Km ([9]; NPA hydrolysis in pig cornea, read-out: Km (this study)) is listed as 125 ± 13 µM. The NPA hydrolysis rate ([9]; pig RPE) was 8.4 ± 1.0 nmol/min/mg, the NPA hydrolysis rate ([9]; pig, all ocular tissues except RPE) was “around 20 nmol/min/mg” and the Km (pig liver CES1) was 520 ± 60 µM. The Km ([10]; NPA hydrolysis in rabbit cornea, read-out: Km (this study)) was 263 ± 15 µM, the NPA hydrolysis rate ([10]; rabbit RPE) was 17.5 ± 2.7 nmol/min/mg and the NPA hydrolysis rate ([10]; rabbit choroid) was 81.6 ± 6.8 nmol/min/mg. The NPA hydrolysis rate ([10]; rabbit, most ocular tissue homogenates, 37 °C) was 30–45 nmol/min/mg protein.

In the case of CC(=O)Oc1ccc2c(c1)Oc1cc(OC(C)=O)ccc1C21OC(=O)c2ccccc21 [FDA, fluorescein diacetate], the FDA hydrolysis rate ([11]; rabbit RPE, aqueous humor and vitreous) is reported as 0.1 to 0.2 nmol/min/mg, the FDA hydrolysis rate ([11]; rabbit choroid, cornea and conjunctiva) is reported as > 1.0 nmol/min/mg and the FDA hydrolysis rate ([11]; rabbit retina) is reported as 0.5 to 1 nmol/min/mg. The Km ([11]; read-out: Km (this study), FDA hydrolysis in rabbit cornea) was 5.5 ± 0.4 µM, the FDA hydrolysis rate ([12]; most pig ocular tissues (except retina)) was < 0.1 nmol/min/mg and the FDA hydrolysis rate ([12]; pig retina) was 0.6 ± 0.1 nmol/min/mg. It also gave a Km ([12]; read-out: Km (this study), FDA hydrolysis in pig retina) of 16 ± 1.6 µM.

For CCN(CC)CCOC(=O)c1ccc(N)cc1 [procaine], the “Procaine hydrolysis rate (PABA formation)” value (shortened to “Procaine hydrolysis rate”) ([13]; pig aqueous humor (lowest)) was 0.02 nmol/min/mg, the “Procaine hydrolysis rate” value ([13]; pig retina (highest)) was 0.09 nmol/min/mg and the “Procaine hydrolysis rate” value ([14]; rabbit aqueous humor and conjunctiva) was 0.04 to 0.1 nmol/min/mg. The “Procaine hydrolysis rate” value ([14]; rabbit cornea, vitreous, RPE and choroid) was 0.2 to 0.3 nmol/min/mg.

From paper PMC8023712, “Carboxylesterase Activities and Protein Expression in Rabbit and Pig Ocular Tissues” (Molecular Pharmaceutics, 2021)
